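The compound was tested at five concentrations on cells cultured in 96-well plates, with a 48-hour exposure period. GI50 is the concentration that inhibits growth by half.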 The source made the active and inactive calls. Rule as the data show it: active = GI50 up to about 1.1 µM and inactive = higher.
Columns and labels:
Assay in all cases: DTP human tumour cell line panel, 48 h
786-0 = system: 786-0
A498 = system: A498
A549 = system: A549
ACHN = system: ACHN
BT-549 = system: BT-549
CAKI-1 = system: CAKI-1
CCRF-CEM = system: CCRF-CEM
COLO 205 = system: COLO 205
DU-145 = system: DU-145
EKVX = system: EKVX
HCT-116 = system: HCT-116
HCT-15 = system: HCT-15
HL-60 = system: HL-60
HOP-62 = system: HOP-62
HOP-92 = system: HOP-92
HT-29 = system: HT-29
Hs-578T = system: Hs-578T
IGROV-1 = system: IGROV-1
K562 = system: K562
KM12 = system: KM12
LOX IMVI = system: LOX IMVI
M14 = system: M14
MDA-MB-231 = system: MDA-MB-231
MDA-MB-435 = system: MDA-MB-435
MDA-N = system: MDA-N
MOLT-4 = system: MOLT-4
Malme-3M = system: Malme-3M
NCI-H226 = system: NCI-H226
NCI-H23 = system: NCI-H23
NCI-H460 = system: NCI-H460
NCI-H522 = system: NCI-H522
NCI/ADR-RES = system: NCI/ADR-RES
OVCAR-3 = system: OVCAR-3
OVCAR-4 = system: OVCAR-4
OVCAR-5 = system: OVCAR-5
OVCAR-8 = system: OVCAR-8
PC-3 = system: PC-3
RPMI-8226 = system: RPMI-8226
RXF 393 = system: RXF 393
SF-268 = system: SF-268
SF-295 = system: SF-295
SF-539 = system: SF-539
SK-MEL-28 = system: SK-MEL-28
SK-MEL-2 = system: SK-MEL-2
SK-MEL-5 = system: SK-MEL-5
SK-OV-3 = system: SK-OV-3
SN12C = system: SN12C
SNB-19 = system: SNB-19
SR = system: SR
SW-620 = system: SW-620
T47D = system: T47D
TK-10 = system: TK-10
U-251 = system: U-251
UACC-257 = system: UACC-257
UACC-62 = system: UACC-62
UO-31 = system: UO-31
HCC 2998 = system: HCC 2998
MCF7 = system: MCF7
SNB-75 = system: SNB-75

In the case of `C[C@@H]1[C@@H](c2ccccc2)O[B-](c2ccccc2)(c2ccccc2)N1C`, the GI50 (786-0) is reported as 65.8 µM (inactive), the GI50 (A498) is reported as 34.8 µM (inactive) and the GI50 (A549) is reported as 58.6 µM (inactive). The GI50 (ACHN) was 33.1 µM (inactive), the GI50 (BT-549) was 30.7 µM (inactive) and the GI50 (CAKI-1) was 27.9 µM (inactive). For the same compound, the GI50 (CCRF-CEM) was 12.9 µM (inactive), the GI50 (COLO 205) was 22.3 µM (inactive) and the GI50 (DU-145) was 63.1 µM (inactive). The GI50 (EKVX) was 97.7 µM (inactive), the GI50 (HCT-116) was 32.9 µM (inactive) and the GI50 (HCT-15) was 40.2 µM. For the same compound, the GI50 (HL-60) was 15.3 µM (inactive), the GI50 (HOP-62) was > 100 µM (inactive) and the GI50 (HOP-92) was 27.8 µM (inactive). The GI50 (HT-29) was 85.9 µM (inactive), the GI50 (Hs-578T) was 33.4 µM (inactive) and the GI50 (IGROV-1) was 69 µM (inactive). For the same compound, the GI50 (K562) was 36.4 µM (inactive), the GI50 (KM12) was 52.1 µM (inactive) and the GI50 (LOX IMVI) was 61.9 µM (inactive). The GI50 (M14) was 28.4 µM (inactive), the GI50 (MDA-MB-231) was 40.7 µM (inactive) and the GI50 (MDA-MB-435) was 35.4 µM (inactive). For the same compound, the GI50 (MDA-N) was 52 µM (inactive), the GI50 (MOLT-4) was 43.7 µM (inactive) and the GI50 (Malme-3M) was 29.5 µM (inactive). The GI50 (NCI-H226) was 36.5 µM (inactive), the GI50 (NCI-H23) was 35.6 µM (inactive) and the GI50 (NCI-H460) was 45.2 µM (inactive). For the same compound, the GI50 (NCI-H522) was 34.5 µM (inactive), the GI50 (NCI/ADR-RES) was 54.5 µM (inactive) and the GI50 (OVCAR-3) was 35.9 µM (inactive). For the same compound, the GI50 (OVCAR-4) was 72.1 µM (inactive), the GI50 (OVCAR-5) was 74.3 µM (inactive) and the GI50 (OVCAR-8) was 72.3 µM (inactive). The GI50 (PC-3) was 17.5 µM (inactive), the GI50 (RPMI-8226) was 32 µM (inactive) and the GI50 (RXF 393) was 37.5 µM (inactive). For the same compound, the GI50 (SF-268) was 64 µM (inactive), the GI50 (SF-295) was 62.4 µM (inactive) and the GI50 (SF-539) was 27.3 µM (inactive). The GI50 (SK-MEL-28) was 52.1 µM (inactive), the GI50 (SK-MEL-2) was 49.5 µM (inactive) and the GI50 (SK-MEL-5) was 30 µM (inactive). The GI50 (SK-OV-3) was 55.3 µM (inactive), the GI50 (SN12C) was 61.5 µM (inactive) and the GI50 (SNB-19) was > 100 µM (inactive). For the same compound, the GI50 (SR) was 21.7 µM (inactive), the GI50 (SW-620) was 50.8 µM (inactive) and the GI50 (T47D) was 38.9 µM (inactive). For the same compound, the GI50 (TK-10) was 32.8 µM (inactive), the GI50 (U-251) was > 100 µM (inactive) and the GI50 (UACC-257) was 50.6 µM (inactive). The GI50 (UACC-62) was 41 µM (inactive) and the GI50 (UO-31) was 20.9 µM (inactive).
For `CC(C)(C)OC(=O)NC(CSCc1ccc(C(=O)c2ccccc2)cc1)C(=O)O` (stereo not given), the GI50 (786-0) was > 100 µM (inactive), the GI50 (A498) was > 100 µM (inactive) and the GI50 (A549) was > 100 µM (inactive). For the same compound, the GI50 (ACHN) was > 100 µM (inactive), the GI50 (BT-549) was > 100 µM (inactive) and the GI50 (CAKI-1) was > 100 µM (inactive). The GI50 (CCRF-CEM) was > 100 µM (inactive), the GI50 (COLO 205) was > 100 µM (inactive) and the GI50 (DU-145) was > 100 µM (inactive). For the same compound, the GI50 (EKVX) was > 100 µM (inactive), the GI50 (HCC 2998) was > 100 µM (inactive) and the GI50 (HCT-116) was > 100 µM (inactive). The GI50 (HCT-15) was greater than 100 µM, the GI50 (HL-60) was > 100 µM (inactive) and the GI50 (HOP-62) was > 100 µM (inactive). For the same compound, the GI50 (HOP-92) was > 100 µM (inactive), the GI50 (HT-29) was > 100 µM (inactive) and the GI50 (Hs-578T) was 34.9 µM (inactive). The GI50 (IGROV-1) was > 100 µM (inactive), the GI50 (K562) was > 100 µM (inactive) and the GI50 (KM12) was > 100 µM (inactive). The GI50 (LOX IMVI) was > 100 µM (inactive), the GI50 (MCF7) was > 100 µM (inactive) and the GI50 (MDA-MB-231) was > 100 µM (inactive). For the same compound, the GI50 (MDA-MB-435) was > 100 µM (inactive), the GI50 (MDA-N) was > 100 µM (inactive) and the GI50 (MOLT-4) was > 100 µM (inactive). For the same compound, the GI50 (Malme-3M) was > 100 µM (inactive), the GI50 (NCI-H226) was > 100 µM (inactive) and the GI50 (NCI-H23) was > 100 µM (inactive). The GI50 (NCI-H460) was > 100 µM (inactive), the GI50 (NCI-H522) was > 100 µM (inactive) and the GI50 (NCI/ADR-RES) was > 100 µM (inactive). For the same compound, the GI50 (OVCAR-3) was > 100 µM (inactive), the GI50 (OVCAR-4) was 88.9 µM (inactive) and the GI50 (OVCAR-5) was > 100 µM (inactive). The GI50 (OVCAR-8) was > 100 µM (inactive), the GI50 (PC-3) was > 100 µM (inactive) and the GI50 (RPMI-8226) was 61.5 µM (inactive). The GI50 (RXF 393) was > 100 µM (inactive), the GI50 (SF-268) was > 100 µM (inactive) and the GI50 (SF-295) was > 100 µM (inactive). For the same compound, the GI50 (SF-539) was > 100 µM (inactive), the GI50 (SK-MEL-28) was > 100 µM (inactive) and the GI50 (SK-MEL-5) was > 100 µM (inactive). The GI50 (SN12C) was > 100 µM (inactive), the GI50 (SNB-19) was > 100 µM (inactive) and the GI50 (SNB-75) was > 100 µM (inactive). The GI50 (SR) was 87.9 µM (inactive), the GI50 (SW-620) was > 100 µM (inactive) and the GI50 (TK-10) was > 100 µM (inactive). For the same compound, the GI50 (U-251) was > 100 µM (inactive), the GI50 (UACC-257) was > 100 µM (inactive) and the GI50 (UO-31) was > 100 µM (inactive).
